Measurements reported in ChEMBL document CHEMBL3714741, “Compounds and compositions as ITPKB inhibitors” (2011).
pIC50: −log10 of the molar value. Calls of active or inactive are those of the source. No rule for the calls is given here.

Each compound was assayed against T1, Kinase (Mus musculus, UniProt B2RXC2) (assay: Inhibition of mouse ITPKb (640 to 942 residues) expressed in Escherichia coli HK100 assessed as reduction in phosphorylation of IP3 to IP4 incubated for 60 mins by kinase-Glo ATP depletion assay).
T1 sequence (B2RXC2 whole entry): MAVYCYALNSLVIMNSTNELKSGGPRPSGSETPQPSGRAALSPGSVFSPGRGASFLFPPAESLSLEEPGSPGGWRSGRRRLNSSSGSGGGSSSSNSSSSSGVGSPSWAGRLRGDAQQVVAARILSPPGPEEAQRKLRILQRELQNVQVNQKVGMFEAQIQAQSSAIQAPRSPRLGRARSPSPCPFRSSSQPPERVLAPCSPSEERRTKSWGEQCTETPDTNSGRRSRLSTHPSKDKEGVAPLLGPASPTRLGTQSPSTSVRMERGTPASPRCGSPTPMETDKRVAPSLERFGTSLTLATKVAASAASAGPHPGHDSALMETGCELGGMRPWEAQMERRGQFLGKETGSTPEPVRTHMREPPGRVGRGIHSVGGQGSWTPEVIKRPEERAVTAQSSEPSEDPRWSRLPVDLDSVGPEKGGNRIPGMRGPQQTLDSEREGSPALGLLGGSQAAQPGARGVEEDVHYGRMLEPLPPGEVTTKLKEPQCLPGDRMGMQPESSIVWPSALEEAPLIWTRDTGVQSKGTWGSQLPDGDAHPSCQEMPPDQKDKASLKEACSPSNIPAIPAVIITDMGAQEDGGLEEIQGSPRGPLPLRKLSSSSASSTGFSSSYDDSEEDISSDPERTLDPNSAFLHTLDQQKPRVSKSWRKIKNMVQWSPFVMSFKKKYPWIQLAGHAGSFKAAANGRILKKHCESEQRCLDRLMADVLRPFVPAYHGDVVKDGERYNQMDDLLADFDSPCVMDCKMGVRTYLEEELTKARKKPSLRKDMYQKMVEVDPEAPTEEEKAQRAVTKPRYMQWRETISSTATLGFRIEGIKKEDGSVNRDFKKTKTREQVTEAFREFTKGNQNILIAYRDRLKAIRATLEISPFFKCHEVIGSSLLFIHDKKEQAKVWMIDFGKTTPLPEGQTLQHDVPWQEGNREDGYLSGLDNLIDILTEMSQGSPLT
For `Cc1cnc(-c2n[nH]cc2CN2CCN(c3ccc(C(F)(F)F)cn3)[C@H](C)C2)[nH]1`, the pIC50 was 5.00.

These compounds were tested against T2, Inositol-trisphosphate 3-kinase B (Homo sapiens) (UniProt P27987) (assay: Inhibition of ITPKb in human Jurkat cells assessed as reduction in conversion of IP3 to IP4 using [3H]-myo-inositol incubated for 5 mins by beta-RAM radio-HPLC method).
T2 sequence (whole entry): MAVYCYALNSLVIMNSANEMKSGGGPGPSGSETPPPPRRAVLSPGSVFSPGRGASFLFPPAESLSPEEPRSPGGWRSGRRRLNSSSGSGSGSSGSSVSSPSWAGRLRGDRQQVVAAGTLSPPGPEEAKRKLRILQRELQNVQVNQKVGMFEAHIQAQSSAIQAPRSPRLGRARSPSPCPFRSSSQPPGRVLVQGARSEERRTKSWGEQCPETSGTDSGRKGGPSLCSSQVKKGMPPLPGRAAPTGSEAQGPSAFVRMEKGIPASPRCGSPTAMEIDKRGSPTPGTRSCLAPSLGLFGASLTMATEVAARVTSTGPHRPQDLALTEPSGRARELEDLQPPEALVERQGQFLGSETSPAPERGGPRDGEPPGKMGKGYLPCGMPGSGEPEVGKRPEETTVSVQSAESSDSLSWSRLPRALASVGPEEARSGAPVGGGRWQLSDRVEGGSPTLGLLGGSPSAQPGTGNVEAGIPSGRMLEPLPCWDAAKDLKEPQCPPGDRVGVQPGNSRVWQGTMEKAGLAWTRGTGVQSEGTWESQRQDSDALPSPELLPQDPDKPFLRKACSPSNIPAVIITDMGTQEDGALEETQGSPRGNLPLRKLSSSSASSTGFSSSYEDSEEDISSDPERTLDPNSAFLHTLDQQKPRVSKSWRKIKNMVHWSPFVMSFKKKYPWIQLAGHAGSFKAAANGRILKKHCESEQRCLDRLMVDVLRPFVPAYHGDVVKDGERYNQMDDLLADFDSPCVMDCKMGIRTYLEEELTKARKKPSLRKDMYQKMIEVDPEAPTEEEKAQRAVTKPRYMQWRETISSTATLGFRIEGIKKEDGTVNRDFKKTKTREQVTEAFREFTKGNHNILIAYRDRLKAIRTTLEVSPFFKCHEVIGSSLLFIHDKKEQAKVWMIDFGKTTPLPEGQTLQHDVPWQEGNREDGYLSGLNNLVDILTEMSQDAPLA
Format: cell-based
For `C[C@@H]1CN(Cc2c[nH]nc2C2=CCNCC2)CCN1c1ccc(C(F)(F)F)cn1`, the inhibition was “Active”.
With `C[C@@H]1CN(Cc2c[nH]nc2/C=C2\NC(=N)NC2=O)CCN1c1ccc(C(F)(F)F)cn1` the inhibition was “Active”.
In the case of `C[C@@H]1CN(Cc2c[nH]nc2C(=O)N2CCC(O)CC2)CCN1c1ccc(C(F)(F)F)cn1`, the inhibition was “Active”.
In the case of `C[C@@H]1CN(Cc2c[nH]nc2-c2nc(C(=N)N)c[nH]2)CCN1c1ccc(C(F)(F)F)cn1`, the inhibition was “Active”.
`Cc1cnc(-c2n[nH]cc2CN2CCN(c3ccc(C(F)(F)F)cn3)[C@H](C)C2)[nH]1` was tested, and the inhibition was “Active”.
For `C[C@@H]1CN(Cc2c[nH]nc2-c2ccc3cnccc3c2)CCN1c1ccc(C(F)(F)F)cn1`, the inhibition was “Active”.
For `C[C@@H]1CN(Cc2c[nH]nc2-c2nc3c([nH]2)CCCC3)CCN1c1ccc(C(F)(F)F)cn1`, the inhibition was “Active”.
With `C[C@@H]1CN(Cc2c[nH]nc2-c2ccc(C(=O)O)o2)CCN1c1ccc(C(F)(F)F)cn1` the inhibition was “Active”.
In the case of `C[C@@H]1CN(Cc2c[nH]nc2-c2cc(C(=O)NCCO)c[nH]2)CCN1c1ccc(C(F)(F)F)cn1`, the inhibition was “Active”.
In the case of `C[C@@H]1CN(Cc2c[nH]nc2C(=O)Nc2ccncc2)CCN1c1ccc(C(F)(F)F)cn1`, the inhibition was “Active”.
With `C[C@@H]1CN(Cc2c[nH]nc2C2CCN(C=O)CC2)CCN1c1ccc(C(F)(F)F)cn1` the inhibition was “Active”.
For `Cc1cc(NC(=O)c2n[nH]cc2CN2CCN(c3ccc(C(F)(F)F)cn3)[C@H](C)C2)n(CCN(C)C)n1`, the inhibition was “Active”.
For `C[C@@H]1CN(Cc2c[nH]nc2/C=C2\NC(=O)NC2=O)CCN1c1ccc(C(F)(F)F)cn1`, the inhibition was “Active”.
For `C[C@@H]1CN(Cc2c[nH]nc2-c2cc(C(=O)N(C)C)c[nH]2)CCN1c1ccc(C(F)(F)F)cn1`, the inhibition was “Active”.
With `C[C@@H]1CN(Cc2c[nH]nc2/C=C2\NC(=S)NC2=O)CCN1c1ccc(C(F)(F)F)cn1` the inhibition was “Active”.
`C[C@@H]1CN(Cc2c[nH]nc2-c2cc3ccccc3[nH]2)CCN1c1ccc(C(F)(F)F)cn1` was tested, and the inhibition was “Active”.
In the case of `C[C@@H]1CN(Cc2c[nH]nc2-c2ccnc3[nH]ccc23)CCN1c1ccc(C(F)(F)F)cn1`, the inhibition was “Active”.
For `C[C@@H]1CN(Cc2c[nH]nc2-c2ccc(C(N)=O)[nH]2)CCN1c1ccc(C(F)(F)F)cn1`, the inhibition was “Active”.
`C[C@@H]1CN(Cc2c[nH]nc2-c2c[nH]c(C(N)=O)c2)CCN1c1ccc(C(F)(F)F)cn1` was tested, and the inhibition was “Active”.
For `C[C@@H]1CN(Cc2c[nH]nc2C2CCNCC2)CCN1c1ccc(C(F)(F)F)cn1`, the inhibition was “Active”.
In the case of `C[C@@H]1CN(Cc2c[nH]nc2C(=O)N2CC(O)C2)CCN1c1ccc(C(F)(F)F)cn1`, the inhibition was “Active”.
In the case of `C[C@@H]1CN(Cc2c[nH]nc2C(=O)Nc2n[nH]cc2C#N)CCN1c1ccc(C(F)(F)F)cn1`, the inhibition was “Active”.
`C[C@@H]1CN(Cc2c[nH]nc2-c2nc(C(N)=O)c[nH]2)CCN1c1ccc(C(F)(F)F)cn1` was tested, and the inhibition was “Active”.
In the case of `C[C@@H]1CN(Cc2c[nH]nc2-c2c[nH]c(C#N)c2)CCN1c1ccc(C(F)(F)F)cn1`, the inhibition was “Active”.
With `CC(=O)N1CC=C(c2n[nH]cc2CN2CCN(c3ccc(C(F)(F)F)cn3)[C@H](C)C2)CC1` the inhibition was “Active”.
With `C[C@@H]1CN(Cc2c[nH]nc2C2=CCN(C=O)CC2)CCN1c1ccc(C(F)(F)F)cn1` the inhibition was “Active”.
With `C[C@@H]1CN(Cc2c[nH]nc2-c2ccc(C#N)c(=O)[nH]2)CCN1c1ccc(C(F)(F)F)cn1` the inhibition was “Active”.
In the case of `C[C@@H]1CN(Cc2c[nH]nc2-c2nc3ccccc3[nH]2)CCN1c1ccc(C(F)(F)F)cn1`, the inhibition was “Active”.
For `FC(F)(F)c1ccc(N2CCN(Cc3c[nH]nc3-c3cccs3)CC2)nc1`, the inhibition was “Active”.
For `C[C@@H]1CN(Cc2c[nH]nc2-c2ccc(C#N)[nH]2)CCN1c1ccc(C(F)(F)F)cn1`, the inhibition was “Active”.
In the case of `C[C@@H]1CN(Cc2c[nH]nc2C(=O)Nc2cc(-c3ccco3)n[nH]2)CCN1c1ccc(C(F)(F)F)cn1`, the inhibition was “Active”.
For `NC(=O)c1c[nH]c(-c2n[nH]cc2CN2CCN(c3ccc(C(F)(F)F)cn3)[C@H](C(F)(F)F)C2)c1`, the inhibition was “Active”.
For `C[C@@H]1CN(Cc2c[nH]nc2-c2cc(C#N)c[nH]2)CCN1c1ccc(C(F)(F)F)cn1`, the inhibition was “Active”.
`C[C@@H]1CN(Cc2c[nH]nc2-c2cc(C(=O)N[C@@H](C)CO)c[nH]2)CCN1c1ccc(C(F)(F)F)cn1` was tested, and the inhibition was “Active”.
`C[C@@H]1CN(Cc2c[nH]nc2-c2c[nH]c3ncccc23)CCN1c1ccc(C(F)(F)F)cn1` was tested, and the inhibition was “Active”.
With `COC(=O)c1ccc(-c2n[nH]cc2CN2CCN(c3ccc(C(F)(F)F)cn3)[C@H](C)C2)o1` the inhibition was “Active”.
For `CNC(=O)c1c[nH]c(-c2n[nH]cc2CN2CCN(c3ccc(C(F)(F)F)cn3)[C@H](C)C2)c1`, the inhibition was “Active”.
With `C[C@@H]1CN(Cc2c[nH]nc2-c2cc(C(=O)O)co2)CCN1c1ccc(C(F)(F)F)cn1` the inhibition was “Active”.
With `C[C@@H]1CN(Cc2c[nH]nc2-c2nc(C(F)(F)F)c[nH]2)CCN1c1ccc(C(F)(F)F)cn1` the inhibition was “Active”.
With `N#Cc1c[nH]c(-c2n[nH]cc2CN2CCN(c3ccc(C(F)(F)F)cn3)[C@H](C(F)(F)F)C2)c1` the inhibition was “Active”.
In the case of `C[C@@H]1CN(Cc2c[nH]nc2-c2nc(-c3ccccc3)c[nH]2)CCN1c1ccc(C(F)(F)F)cn1`, the inhibition was “Active”.
In the case of `C[C@@H]1CN(Cc2c[nH]nc2C(=O)Nc2nc[nH]c2C#N)CCN1c1ccc(C(F)(F)F)cn1`, the inhibition was “Active”.
With `C[C@@H]1CN(Cc2c[nH]nc2-c2cc(C(N)=O)c[nH]2)CCN1c1ccc(C(F)(F)F)cn1` the inhibition was “Active”.
In the case of `Cc1nc(-c2n[nH]cc2CN2CCN(c3ccc(C(F)(F)F)cn3)[C@H](C)C2)[nH]c1C`, the inhibition was “Active”.
With `C[C@@H]1CN(Cc2c[nH]nc2-c2nc3cc(C#N)ccc3[nH]2)CCN1c1ccc(C(F)(F)F)cn1` the inhibition was “Active”.
For `C[C@@H]1CN(Cc2c[nH]nc2-c2nc(C#N)c[nH]2)CCN1c1ccc(C(F)(F)F)cn1`, the inhibition was “Active”.
For `C[C@@H]1CN(Cc2c[nH]nc2-c2nc3cnccc3[nH]2)CCN1c1ccc(C(F)(F)F)cn1`, the inhibition was “Active”.
`C[C@@H]1CN(Cc2c[nH]nc2-c2ccc(C(N)=O)o2)CCN1c1ccc(C(F)(F)F)cn1` was tested, and the inhibition was “Active”.
For `C[C@@H]1CN(Cc2c[nH]nc2-c2nc3cc(F)ccc3[nH]2)CCN1c1ccc(C(F)(F)F)cn1`, the inhibition was “Active”.
With `C[C@@H]1CN(Cc2c[nH]nc2C2=CCN(C(=O)CCO)CC2)CCN1c1ccc(C(F)(F)F)cn1` the inhibition was “Active”.
For `C[C@@H]1CN(Cc2c[nH]nc2C(=O)N2CCC(O)C2)CCN1c1ccc(C(F)(F)F)cn1` (some centres undefined), the inhibition was “Active”.
In the case of `C[C@@H]1CN(Cc2c[nH]nc2-c2cc(C(N)=O)co2)CCN1c1ccc(C(F)(F)F)cn1`, the inhibition was “Active”.
In the case of `CC(O)CNC(=O)c1c[nH]c(-c2n[nH]cc2CN2CCN(c3ccc(C(F)(F)F)cn3)[C@H](C)C2)c1` (some centres undefined), the inhibition was “Active”.
